Measurements: ChEMBL document CHEMBL1155307, “4-Anilino-7-pyridyl-3-quinolinecarbonitriles as Src kinase inhibitors” (Bioorg Med Chem Lett, 2009)

Target: Proto-oncogene tyrosine-protein kinase Src (Homo sapiens, UniProt P12931)
Experiment: Inhibition of Src

Sequence of Proto-oncogene tyrosine-protein kinase Src (P12931 2-536 limits assumed): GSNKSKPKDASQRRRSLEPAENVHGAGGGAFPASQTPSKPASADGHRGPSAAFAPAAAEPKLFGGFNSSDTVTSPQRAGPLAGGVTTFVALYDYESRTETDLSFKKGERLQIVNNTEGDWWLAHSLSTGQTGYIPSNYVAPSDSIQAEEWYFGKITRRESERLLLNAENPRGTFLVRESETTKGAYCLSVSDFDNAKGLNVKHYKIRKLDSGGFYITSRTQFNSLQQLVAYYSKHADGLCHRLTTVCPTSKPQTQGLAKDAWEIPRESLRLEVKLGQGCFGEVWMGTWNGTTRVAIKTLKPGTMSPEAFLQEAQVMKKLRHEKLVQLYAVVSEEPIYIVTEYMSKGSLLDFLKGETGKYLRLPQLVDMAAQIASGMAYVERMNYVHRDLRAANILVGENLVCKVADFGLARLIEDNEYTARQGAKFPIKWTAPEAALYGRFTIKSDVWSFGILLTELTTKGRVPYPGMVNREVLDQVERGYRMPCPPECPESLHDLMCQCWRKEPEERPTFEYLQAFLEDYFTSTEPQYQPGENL

IC50: 0.95 µM
SMILES: COc1cc(Nc2c(C#N)cnc3cc(-c4ncccc4CN4CCOCC4)ccc23)c(Cl)cc1Cl
